According to ChEMBL document CHEMBL4610010, “Metachromins X and Y from a marine sponge Spongia sp. and their effects on cell cycle progression” (Bioorg Med Chem, 2020):
pIC50: −log10 of the molar value. Structures can show the parent of a compound that is named as a salt. Active and inactive are the calls of the source. No cut-off for these calls is given here.

Columns and labels:
HeLa/Fucci2 [1] = experiment: Antiproliferative activity against human HeLa/Fucci2 cells assessed as inhibition of cell viability incubated for 3 days by MTT assay; type: functional, cell-based; details: HeLa/Fucci2, 72 h
HeLa/Fucci2 [2] = experiment: Induction of cell cycle arrest in human HeLa/Fucci2 cells assessed as accumulation at S/G2/M phase at 56 uM measured after 68 hrs by Time-lapse imaging analysis based fluorescent microscopic method; type: functional
HeLa/Fucci2 [3] = experiment: Induction of cell cycle arrest in human HeLa/Fucci2 cells assessed as accumulation at G1 phase at 56 uM incubated for 3 days by flow cytometric analysis (reference value: 39.4%); type: functional
HeLa/Fucci2 [4] = experiment: Induction of cell cycle arrest in human HeLa/Fucci2 cells assessed as accumulation at G1/S phase at 56 uM incubated for 3 days by flow cytometric analysis (reference value: 40.2%); type: functional
HeLa/Fucci2 [5] = experiment: Induction of cell cycle arrest in human HeLa/Fucci2 cells assessed as accumulation at S/G2/M phase at 56 uM incubated for 3 days by flow cytometric analysis (reference value: 20.4%); type: functional

SMILES	pIC50 (HeLa/Fucci2 [1])	Activity (HeLa/Fucci2 [2])	Activity (HeLa/Fucci2 [3])	Activity (HeLa/Fucci2 [4])	Activity (HeLa/Fucci2 [5])
COC1=CC(=O)C2=C(C=CC(C)(CC[C@@]3(C)CCC=C(C)[C@H]3C)O2)C1=O (some centres not stated)	4.14	inactive	–	–	–
COC1=CC(=O)C2=C(C=CC(C)(CCC3=C(C)CCCC3(C)C)O2)C1=O (racemic)	4.12	inactive	21.5%	23.4%	55%
COc1cc(OC)c2c(c1O)C=C[C@](C)(CC[C@@]1(C)CCC=C(C)[C@H]1C)O2	4.05	inactive	–	–	–

These reach a higher pIC50 (HeLa/Fucci2 [1]). Values come first.

pIC50 (HeLa/Fucci2 [1])	SMILES	Activity (HeLa/Fucci2 [2])	Activity (HeLa/Fucci2 [3])	Activity (HeLa/Fucci2 [4])	Activity (HeLa/Fucci2 [5])
4.28	COC1=CC(=O)C(O)=C(C/C=C(\C)CC[C@@]2(C)CCC=C(C)[C@H]2C)C1=O [METACHROMIN C]	Active	–	–	–
4.19	COC1=CC(=O)C(O)=C(C/C=C(\C)CCC2=C(C)CCCC2(C)C)C1=O	Active	7.6%	4.3%	88%
5.70	COc1cccc2c1C(=O)c1c(O)c3c(c(O)c1C2=O)C[C@@](O)(C(=O)CO)C[C@@H]3O[C@H]1C[C@H](N)[C@H](O)[C@H](C)O1 [DOXORUBICIN HYDROCHLORIDE]	–	–	–	–
